Target: ABCB1 (P-glycoprotein) (Homo sapiens, UniProt P08183)
Experiment: TP_TRANSPORTER: efflux in Doxorubicin resistant K562 cells

Chain of ABCB1 (P-glycoprotein) (P08183 whole entry): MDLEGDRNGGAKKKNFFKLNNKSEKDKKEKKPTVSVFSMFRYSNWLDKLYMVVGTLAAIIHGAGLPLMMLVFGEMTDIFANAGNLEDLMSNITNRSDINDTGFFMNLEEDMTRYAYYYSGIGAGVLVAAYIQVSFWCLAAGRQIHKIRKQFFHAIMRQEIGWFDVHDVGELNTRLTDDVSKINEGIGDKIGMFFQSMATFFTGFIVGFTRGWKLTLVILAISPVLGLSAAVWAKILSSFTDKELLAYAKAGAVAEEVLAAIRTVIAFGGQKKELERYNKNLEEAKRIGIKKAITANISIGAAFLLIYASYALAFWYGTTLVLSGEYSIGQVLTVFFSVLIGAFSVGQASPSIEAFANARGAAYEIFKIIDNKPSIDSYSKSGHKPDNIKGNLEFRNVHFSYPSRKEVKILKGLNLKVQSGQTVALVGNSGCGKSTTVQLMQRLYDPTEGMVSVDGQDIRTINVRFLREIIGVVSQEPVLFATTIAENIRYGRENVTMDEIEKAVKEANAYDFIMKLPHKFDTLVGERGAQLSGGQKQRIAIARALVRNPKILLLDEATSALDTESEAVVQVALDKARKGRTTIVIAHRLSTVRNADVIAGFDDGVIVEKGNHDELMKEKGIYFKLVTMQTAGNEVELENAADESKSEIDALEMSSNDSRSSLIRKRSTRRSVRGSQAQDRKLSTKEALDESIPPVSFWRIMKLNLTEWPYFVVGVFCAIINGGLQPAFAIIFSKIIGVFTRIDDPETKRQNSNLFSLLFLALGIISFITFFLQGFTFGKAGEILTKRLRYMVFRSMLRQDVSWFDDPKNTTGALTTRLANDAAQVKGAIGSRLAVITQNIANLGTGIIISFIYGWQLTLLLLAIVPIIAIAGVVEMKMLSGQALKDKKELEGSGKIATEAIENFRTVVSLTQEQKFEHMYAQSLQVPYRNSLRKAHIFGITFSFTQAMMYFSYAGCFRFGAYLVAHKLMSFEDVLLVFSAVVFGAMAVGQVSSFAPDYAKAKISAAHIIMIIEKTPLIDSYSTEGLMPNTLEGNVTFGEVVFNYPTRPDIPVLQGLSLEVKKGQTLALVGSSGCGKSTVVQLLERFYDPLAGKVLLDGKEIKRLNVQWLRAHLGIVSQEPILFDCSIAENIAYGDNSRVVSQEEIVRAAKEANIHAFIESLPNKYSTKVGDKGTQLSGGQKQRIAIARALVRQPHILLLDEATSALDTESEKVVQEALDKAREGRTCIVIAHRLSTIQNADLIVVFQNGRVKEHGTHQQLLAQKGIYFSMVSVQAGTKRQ

With `COc1cccc2c1C(=O)c1c(O)c3c(c(O)c1C2=O)C[C@@](O)(C(=O)CO)C[C@@H]3O[C@H]1C[C@H](O)[C@H](O)[C@H](C)O1` [HYDROXYRUBICIN] the Km was 2 µM.

Source: ChEMBL document CHEMBL2074063, “P-glycoprotein-mediated efflux of hydroxyrubicin, a neutral anthracycline derivative, in resistant K562 cells” (FEBS Lett, 1994)
